Assay results: US10898483B2, “Methods for inducing an immune response by promoting premature termination codon read-through” (MOONSHOT PHARMA LLC, priority 2015, dated 2021)

Legend:
normal stop codons = conditions: cited from earlier work
[1] = test system: intratumoral T-cell infiltrates (CD45+, CD3+, CD8+, and CD4+ cells); test: FACS analysis for intratumoral T-cell infiltrates; assay type: in vivo, C57BL/6 mice; conditions: FIG. 5
Method: FACS analysis: Tumor cells were isolated from each treatment group and FACS analysis performed according to methods which are well known in the art.

MC38 tumor cells = test: MC38 subcutaneous tumor model in C57BL/6 mice, tumor volume by caliper; assay type: in vivo; parameters: Percent inhibition of tumor volume: concentration or dose not given beside the values; conditions: for Percent inhibition of tumor volume: negative values indicate an increase in tumor volume; for Mean tumor volume: PTC124 20 mg/kg i.p. QD, antibodies 10 mg/kg (anti-CD8 200 ug/mouse) BIW x 3 weeks
Method: Animals: Female 6-8 week old (estimated age at inoculation) C57BL/6 mice were obtained from Shanghai Lingchang Bio-Technology Co. Ltd (LC, Shanghai, China). The animals were housed at 20˜26° C. with a 12 hours light and 12 hours darkness cycle.
Cell Culture: MC38 tumor cells were maintained in vitro as a monolayer culture in DMEM medium supplemented with 10% fetal bovine serum at 37° C. in an atmosphere of 5% CO2 in air. The tumor cells were routinely subcultured twice weekly. Cells in an exponential growth phase were harvested and counted for tumor inoculation.
Therapeutic compounds: Ataluren (PTC124) was obtained from Selleck Chemicals (Houston, Tex.). Anti-PD-1 and anti-CTLA-4 antibodies were obtained from BioXCell as was an anti-CD8 antibody.
Tumor Inoculation: Each mouse was inoculated subcutaneously at the right lower flank region with MC38 tumor cells (1×10^6) in 0.1 mL of PBS for tumor development. The treatments were started when the mean tumor size reaches approximately 50 mm^3. The date of tumor cell inoculation was denoted as day 0.
Group assignment: Before grouping and treatment, all animals were weighed and the tumor volumes measured using a caliper. Tumor volume was used as numeric parameter to randomize selected animals into specified groups in order to minimize systematic error. The grouping was performed by using StudyDirector™ software (Studylog Systems, Inc. CA, USA). One optimal randomization design (generated by Matched distribution) showing minimal group to group variation in tumor volume was selected for group allocation.
After tumor cell inoculation, the animals were checked daily for morbidity and mortality as well as any effects of tumor growth and treatments on normal behavior such as mobility, visual estimation of food and water consumption, body weight gain/loss, eye/hair matting and any other abnormal effect. Tumor volumes were measured twice weekly at least in two dimensions using a caliper, and the volume expressed in mm^3 using the formula: V=0.5 a×b^2 where a and b are the long and short diameters of the tumor, respectively.

[2] = test system: CD3+ immune cells infiltrating tumor tissue; test: Immunohistochemistry of sectioned tumor tissue for immune cell infiltration; assay type: in vivo, C57BL/6 mice; conditions: FIG. 4
Method: Immunohistochemistry (IHC): Formalin-fixed paraffin-embedded (FFPE) tissue from tumor samples were sectioned to 4 um. Antigen retrieval (AR) was conducted at 100° C., in EDTA buffer, at pH 9.0 for 20 min. Primary antibody (diluted with validated concentration), RT 60 min+ secondary antibody (ready-to-use), RT 60 min+Bond Polymer Refine Detection.

[3] = phase-I clinical study in cystic fibrosis; cited from earlier work

## O=C(O)c1cccc(-c2noc(-c3ccccc3F)n2)c1 [PTC124, 3-[5-(2-Fluorophenyl)-1,2,4-oxadiazol-3-yl]benzoic acid]
Normal stop codons
  Ribosomal read-through of normal stop codons: does not induce ribosomal read-through of normal stop codons
[1]
  Intratumoral T-cell infiltrates (CD45+, CD3+, CD8+, and CD4+ cells) by FACS: increased intratumoral T-cell infiltrates
MC38 tumor cells; Day 9
  Percent inhibition of tumor volume: −0.96%
MC38 tumor cells; Day 9 after inoculation (randomization)
  Mean tumor volume: 52.46 mm^3
MC38 tumor cells; Day 12
  Mean tumor volume: 72.34 mm^3
  Percent inhibition of tumor volume: 13.94%
MC38 tumor cells; Day 15
  Mean tumor volume: 128.58 mm^3
  Percent inhibition of tumor volume: 1.20%
MC38 tumor cells; Day 18
  Mean tumor volume: 231.26 mm^3
  Percent inhibition of tumor volume: 19.87%
MC38 tumor cells; Day 22
  Mean tumor volume: 388.94 mm^3
  Percent inhibition of tumor volume: 18.64%
MC38 tumor cells; Day 25
  Mean tumor volume: 617.86 mm^3
  Percent inhibition of tumor volume: 22.82%
MC38 tumor cells; Day 29
  Mean tumor volume: 988.37 mm^3
  Percent inhibition of tumor volume: 21.47%
MC38 tumor cells; Day 32
  Mean tumor volume: 1459.49 mm^3
  Percent inhibition of tumor volume: 18.16%
MC38 tumor cells; MC38 tumor-bearing C57BL/6 mice, Table 6, FIGS. 1-3
  Tumor inhibition (in words): has tumor inhibition-promoting properties
[2]
  CD3+ immune cells infiltrating tumor tissue (immunohistochemical analysis): significant numbers of CD3+ immune cells infiltrating tumor tissue
[3]
  Read-through activity compared with aminoglycosides: more efficient read-through activity than aminoglycosides
  Tolerability: generally well tolerated
